Data as given in the supplement of paper PMC13380429.

Legend:
Settings in all cases: 72 h
Caco-2 [1] = assay: cell viability relative to DMSO; higher = less toxic
Calu-3 [2] = assay: as above
HepG2 [3] = assay: as above
U2OS [4] = assay: as above
Vero E6 [5] = assay: as above
Caco-2 [6] = assay: relative viability EC50 (midpoint between 100% and the lowest measured viability); higher = less toxic
Calu-3 [7] = assay: as above
HepG2 [8] = assay: as above
U2OS [9] = assay: as above
Vero E6 [10] = assay: as above
Caco-2 [11] = assay: drug sensitivity score (DSS) for viability; higher = more toxic; extreme values may be limits of the assay
Calu-3 [12] = assay: as above
HepG2 [13] = assay: as above
U2OS [14] = assay: as above
Vero E6 [15] = assay: as above

Compound | cell viability (Caco-2 [1]; 1 nM) | cell viability (Caco-2 [1]; 10 nM) | cell viability (Caco-2 [1]; 100 nM) | cell viability (Caco-2 [1]; 1000 nM) | cell viability (Caco-2 [1]; 10000 nM) | cell viability (Calu-3 [2]; 1 nM) | cell viability (Calu-3 [2]; 10 nM) | cell viability (Calu-3 [2]; 100 nM) | cell viability (Calu-3 [2]; 1000 nM) | cell viability (Calu-3 [2]; 10000 nM) | cell viability (HepG2 [3]; 1 nM) | cell viability (HepG2 [3]; 10 nM) | cell viability (HepG2 [3]; 100 nM) | cell viability (HepG2 [3]; 1000 nM) | cell viability (HepG2 [3]; 10000 nM) | cell viability (U2OS [4]; 1 nM) | cell viability (U2OS [4]; 10 nM) | cell viability (U2OS [4]; 100 nM) | cell viability (U2OS [4]; 1000 nM) | cell viability (U2OS [4]; 10000 nM) | cell viability (Vero E6 [5]; 1 nM) | cell viability (Vero E6 [5]; 10 nM) | cell viability (Vero E6 [5]; 100 nM) | cell viability (Vero E6 [5]; 1000 nM) | cell viability (Vero E6 [5]; 10000 nM) | relative viability EC50 (Caco-2 [6]) | relative viability EC50 (Calu-3 [7]) | relative viability EC50 (HepG2 [8]) | relative viability EC50 (U2OS [9]) | relative viability EC50 (Vero E6 [10]) | drug sensitivity score (Caco-2 [11]) | drug sensitivity score (Calu-3 [12]) | drug sensitivity score (HepG2 [13]) | drug sensitivity score (U2OS [14]) | drug sensitivity score (Vero E6 [15])
Clc1ccccc1C(c1ccccc1)(c1ccccc1)n1cccn1 [TRAM-34] | 95.8% | 89% | 99% | 99% | 90.1% | 104% | 104% | 106% | 93.4% | 103% | 107% | 96.5% | 93.5% | 98.4% | 104% | 97.6% | 98.4% | 101% | 99.2% | 99% | 104% | 111% | 97.6% | 104% | 98.9% | > 10 µM | > 10 µM | > 10 µM | > 10 µM | > 10 µM | 0 | 0 | 0 | 0 | 0
Cc1ccc2c(c1)[C@]13CCCC[C@@H]1[C@H](C2)N(C)CC3 [dimemorfan] | 93.5% | 96.5% | 94.6% | 103% | 91.8% | 89.1% | 95.5% | 89.1% | 89.2% | 98.7% | 105% | 103% | 99% | 95.3% | 101% | 96.8% | 102% | 95.7% | 101% | 93.7% | 101% | 103% | 104% | 98.7% | 106% | > 10 µM | > 10 µM | > 10 µM | > 10 µM | > 10 µM | 0 | 0 | 0 | 0 | 0
OC[C@H]1O[C@H]([S-])[C@H](O)[C@@H](O)[C@@H]1O.[Au+] [aurothioglucose] | 108% | 92.2% | 98.7% | 91.3% | 84.2% | 101% | 92.1% | 97.3% | 106% | 100% | 90.4% | 106% | 106% | 120% | 97.5% | 96.1% | 98.4% | 98.7% | 91.8% | 27.4% | 87.3% | 91.2% | 86.7% | 89.5% | 117% | > 10 µM | > 10 µM | > 10 µM | 2.24 µM | > 10 µM | 0.5 | 0 | 0 | 5.4 | 0
Fc1ccc([C@@H]2CCNC[C@H]2COc2ccc3c(c2)OCO3)cc1 [paroxetine] | 85.8% | 102% | 111% | 98.6% | 82.1% | 95.9% | 87.4% | 93.1% | 85.1% | 108% | 117% | 120% | 108% | 83.7% | 102% | 97.7% | 96.4% | 103% | 98% | 101% | 95.9% | 104% | 98.7% | 101% | 100% | > 10 µM | > 10 µM | > 10 µM | > 10 µM | > 10 µM | 0.6 | 0 | 0 | 0 | 0
COc1cc(OC)cc(-c2ccc3c(-c4ccc(F)cc4)n[nH]c3n2)c1 [APcK-110] | 94.5% | 98.3% | 97.6% | 96.3% | 99.9% | 99.5% | 110% | 104% | 103% | 97.3% | 99.8% | 90.1% | 101% | 98.1% | 107% | 93.5% | 99.5% | 97.9% | 99.9% | 103% | 99.1% | 89.9% | 97.1% | 93.3% | 108% | > 10 µM | > 10 µM | > 10 µM | > 10 µM | > 10 µM | 0 | 0 | 0 | 0 | 0
CC(C)(Oc1ccc(C2CC2(Cl)Cl)cc1)C(=O)O (stereo not given) [ciprofibrate] | 101% | 93.5% | 103% | 86.7% | 102% | 104% | 98.1% | 96.5% | 93.7% | 95.9% | 96.3% | 106% | 99.2% | 96.1% | 100% | 93.2% | 98.3% | 99.6% | 94.7% | 91.7% | 94.1% | 94.4% | 93.4% | 97.2% | 108% | > 10 µM | > 10 µM | > 10 µM | > 10 µM | > 10 µM | 0 | 0 | 0 | 0 | 0
CCCCOc1nc(N)c2c(n1)N(Cc1cccc(CN3CCCC3)c1)CC(=O)N2 [GS-9620] | 96.3% | 104% | 91.4% | 98.5% | 98.3% | 101% | 95.1% | 111% | 96.1% | 104% | 105% | 102% | 95.9% | 100% | 99.1% | 100% | 96.5% | 96.8% | 95.6% | 101% | 108% | 96.3% | 101% | 103% | 98.8% | > 10 µM | > 10 µM | > 10 µM | > 10 µM | > 10 µM | 0 | 0 | 0 | 0 | 0
O=c1c(O)c(-c2ccc(O)cc2O)oc2cc(O)cc(O)c12 [morin] | 102% | 96.5% | 96.6% | 102% | 88.6% | 113% | 99.5% | 96.3% | 91.6% | 102% | 87.2% | 103% | 98.9% | 97.4% | 98.9% | 101% | 93.7% | 104% | 97.3% | 102% | 94.9% | 95.8% | 99% | 98.4% | 95.9% | > 10 µM | > 10 µM | > 10 µM | > 10 µM | > 10 µM | 0 | 0 | 0 | 0 | 0
CCN(CC)CCOc1ccccc1C(=O)CCc1ccccc1 [etafenone] | 93.3% | 104% | 94% | 103% | 100% | 96.9% | 99% | 106% | 108% | 101% | 98.6% | 90.6% | 106% | 94.7% | 94.3% | 94.8% | 101% | 97.9% | 103% | 103% | 93.2% | 93% | 101% | 91.8% | 102% | > 10 µM | > 10 µM | > 10 µM | > 10 µM | > 10 µM | 0 | 0 | 0 | 0 | 0
O=C(/C=C/c1cccc(S(=O)(=O)Nc2ccccc2)c1)NO [belinostat] | 87.9% | 96.6% | 89.3% | 21.6% | 0.6% | 90.7% | 89.2% | 86.6% | 41% | 9.9% | 98.5% | 98.7% | 87.6% | 22.4% | 0.3% | 94.6% | 94.9% | 81.9% | 16% | 0.9% | 93.2% | 92.9% | 83.4% | 8.4% | 0.1% | 0.412 µM | 0.506 µM | 0.406 µM | 0.29 µM | 0.252 µM | 15.9 | 13.1 | 16 | 17.7 | 18.8
CCCC(=O)O[C@]1(C(=O)COC(C)=O)CC[C@H]2[C@@H]3C[C@H](F)C4=CC(=O)C=C[C@]4(C)[C@@]3(F)[C@@H](O)C[C@@]21C [difluprednate] | 96.6% | 93.2% | 98.3% | 101% | 91.8% | 106% | 90.7% | 87.7% | 90.5% | 102% | 97.5% | 93.7% | 107% | 105% | 88.3% | 99.5% | 93.3% | 93.4% | 94.1% | 92.1% | 96.9% | 97% | 95.3% | 98.9% | 94.2% | > 10 µM | > 10 µM | > 10 µM | > 10 µM | > 10 µM | 0 | 0 | 0 | 0 | 0
Cc1cc(/C=C2\SC(=O)N(c3ccccc3)C2=O)c(C)n1-c1cccnc1 [iCRT-14] | 107% | 107% | 102% | 96.8% | 89% | 101% | 88.7% | 100% | 104% | 107% | 96.7% | 102% | 93.4% | 94.3% | 76.2% | 97% | 96.8% | 102% | 95.7% | 96.4% | 105% | 102% | 96.8% | 99.8% | 89.8% | > 10 µM | > 10 µM | > 10 µM | > 10 µM | > 10 µM | 0.1 | 0 | 1.4 | 0 | 0
CCCN(CCC)C1Cc2cc(OC)c(OC)cc2C1 | 96.6% | 99.6% | 94.1% | 98.3% | 89.9% | 96.9% | 108% | 92.3% | 93.7% | 108% | 96.1% | 106% | 101% | 99.8% | 94.6% | 102% | 97.5% | 100% | 99.5% | 104% | 103% | 103% | 103% | 102% | 99% | > 10 µM | > 10 µM | > 10 µM | > 10 µM | > 10 µM | 0 | 0 | 0 | 0 | 0
